In patent US9919031B2, “Use of the insulin-like-growth factor 1 splice variant MGF for the prevention of myocardial damage” (THE BOARD OF TRUSTEES OF UNIVERSITY OF ILLINOIS, priority 2002, dated 2018):

What was measured:
cardiac myocytes = assay: Induction of endogenous MGF expression by PMA, real time RT-PCR; type: cell-based
Protocol: Primary cultures of cardiac myocytes were cultured in serum free media for 24 hours prior to the addition of PMA (200 nM). After 30 min total RNA was extracted and MGF gene expression was assayed using real time RT-PCR. […] B. A repeat of the initial experiment but in the third group PMA was added to the cultures without changing the media. MGF expression is increased to a great extent than when PMA is added with fresh media.
In order to investigate which signal appear to modulate MGF expression in cardiac myocytes, several drugs were applied to cardiomyocyte cultures. These in turn activate signal transduction molecules either directly or indirectly through receptor coupled molecules. One such drug is phorbol myristate acetate (PMA), a phorbol ester that specifically activates the Protein Kinase C family of serine/threonine signaling kinases. […] When the amount of MGF is compared to the amount of liver-type IGF in the control conditions, there is substantially less in the cardiac myocytes. […] When the same experiment was repeated but the PMA was added to myocyte cultures in which the media had not been changed for 24 hours prior to the addition of the PMA, the increase in MGF expression is even greater than when PMA is added along with fresh media (FIG. 5B).

[1] = animal models of cardiomyopathy and clinical trials; cited from earlier work
[2] = rats, recombinant L.IGF-I administered after ischemia; cited from earlier work

Molecule: CCCCCCCCCCCCCC(=O)O[C@@H]1[C@@H](C)[C@@]2(O)[C@@H](C=C(CO)C[C@]3(O)C(=O)C(C)=C[C@@H]23)[C@@H]2C(C)(C)[C@]12OC(C)=O [PMA, phorbol myristate acetate]
- level of IGF expression (cardiac myocytes; PMA 200 nM, 30 min): does not change
- expression of the endogenous MGF gene (cardiac myocytes; PMA 200 nM, 30 min, serum free media 24 hours, added with fresh media): significant increase
- increase in MGF expression, media not changed (cardiac myocytes; PMA added to cultures whose media had not been changed for 24 hours, versus PMA with fresh media): even greater

Molecule: growth hormone: growth hormone; induces expression of systemic insulin-like growth factors via the liver
- cardiac function [1]: Significant improvement

Molecule: recombinant L.IGF-I: recombinant systemic, liver-type IGF-I
- cell death following transient myocardial ischemia [2]: reduced cell death
